From US20140005216A1, “Nalmefene for reduction of alcohol consumption in specific target populations” (H. Lundbeck A/S, priority 2012, published 2014)
Entries after “also recorded” stand apart in the source; their conditions may differ.

Experiments:
alcohol dependence [1] = settings: 5, 20 and 40 mg daily doses; Anton et al. 2004; cited from earlier work
alcohol dependence [2] = settings: 20 to 80 mg daily oral dosing; Mason et al. 1999; cited from earlier work
[3] = system: patients with alcohol dependence; experiment: Study 12023A: randomised, double blind, placebo controlled 6 month efficacy study, reduction of alcohol consumption; assay type: in vivo, human; settings: nalmefene 18 mg as-needed, MMRM
Method: (§1) The efficacy of nalmefene on the reduction of alcohol consumption in patients with alcohol dependence (DSM-IV) was evaluated in two efficacy studies (Study 12014A and Study 12023A). Both studies were randomised, double blind, two-parallel group, placebo controlled, and after 6 months of treatment, patients receiving nalmefene were re-randomised to receive either placebo or nalmefene in a 1 month run out period. The efficacy of nalmefene was also evaluated in a randomised, double blind, two parallel group, placebo controlled 1 year safety study (Study 12013A). The studies included 1941 patients, 1144 of whom were treated with nalmefene 18 mg in an as-needed dosing regimen.
(§2) The studies were conducted applying an outpatient setting without preceding detoxification. Higher CIWA withdrawal scores at Screening as well as a history of delirium tremens and seizures would be indicative for the necessity of prior inpatient detoxification. Patients with abuse of substance other than alcohol and subjects with significant depressive or psychotic co-morbidity were excluded.
(§3) The studies included outpatients, aged ≧18 years, with a primary diagnosis of alcohol dependence. A patient was eligible for participation in the study if, in the 4 weeks preceding the Screening Visit (Baseline period), he/she had >6 HDDs, at least a medium DRL (calculated as mean daily alcohol consumption in g/day i.e. >40 g/day for men and >20 g/day for women calculated as mean daily alcohol consumption over the 4 week period preceding the screening visit), and ≦14 consecutive abstinent days. The timeline followback (TLFB) method was used to obtain estimates of the patient's daily drinking.
(§4) The studies were conducted over a 34 week period (12 visits) in total and consisted of four sequential periods: a 2-week screening period, a 24-week double-blind treatment period, a 4-week double-blind placebo-controlled run-out in each of the treatment arms and finally a 4-week safety follow-up. One to two weeks after the Screening Visit the patients were randomised 1:1 to 24 weeks of as-needed, double-blind treatment (Main Treatment Period: MTP) with nalmefene (18 mg) or placebo. The patients who completed 24 weeks of double-blind treatment entered a 4-week, double-blind Run-out Period (ROP). The patients randomised to nalmefene were re-randomised 1:1 to receive nalmefene (18 mg, as-needed) or placebo and the patients randomised to placebo continued on placebo.
(§5) The Timeline Follow-back (TLFB) method was used to collect self-reported drinking data (alcohol consumption).
(§6) At the initial visit, the patients' clinical status, social situation, and alcohol consumption pattern were evaluated (based on patient reporting). After a 1- to 2-week observation period the drinking risk level was re-assessed (i.e. the […] daily alcohol consumption over the 1-2 week assessment period was calculated), and treatment with nalmefene was initiated together with counseling with focus on motivating the patients to adhere to the treatment and to change their drinking behavior. In all the studies, a motivational and adherence enhancing intervention, according to the BRENDA model, was administered to all the patients to support the patients in changing their behavior and to enhance adherence to treatment.
(§7) The patients' alcohol intake (g/day) was estimated based on national definitions of standard units (subsequently converted into grams of alcohol). To define the standard units, a standard drink conversion card was distributed to each patient at the Screening Visit. Each patient was also provided with a calendar that he/she could use to support his/her input to the TLFB, or he/she could use a personal calendar, if preferred. For all the variables derived from the TLFB data, baseline was defined as the month (that is 4 weeks/28 consecutive days) preceding the Screening Visit. The investigational medicinal product (IMP) was taken as-needed. […]

[4] = system: patients with alcohol dependence; experiment: Study 12013A: randomised, double blind, placebo controlled 1 year safety study, reduction of alcohol consumption; assay type: in vivo, human; settings: nalmefene 18 mg as-needed, MMRM
Method: as §1, §2, §3, §5, §6
The patients' alcohol intake (g/day) was estimated based on national definitions of standard units (subsequently converted into grams of alcohol). To define the standard units, a standard drink conversion card was distributed to each patient at the Screening Visit. Each patient was also provided with a calendar that he/she could use to support his/her input to the TLFB, or he/she could use a personal calendar, if preferred. For all the variables derived from the TLFB data, baseline was defined as the month (that is 4 weeks/28 consecutive days) preceding the Screening Visit. The investigational medicinal product (IMP) was taken as-needed. Each patient was instructed to take a maximum of one tablet on each day the patient perceived a risk of drinking alcohol, preferably 1 to 2 hours prior to the anticipated time of drinking. If the patient had started drinking alcohol without taking nalmefene, the patient was to take one tablet as soon as possible. The dates when nalmefene was taken/not taken were recorded using the TLFB method. The chosen comparator was placebo
The efficacy of nalmefene was measured using two co-primary endpoints: the change in the monthly number of heavy drinking days (HDDs) and the change in the mean daily total alcohol consumption (TAC) per month (=28 days). A HDD was defined as a day with a consumption ≧60 g alcohol for men and ≧40 g for women. […]

[5] = system: patients with alcohol dependence; experiment: Three Lundbeck phase III studies (12014A, 12023A, 12013A) taken together, HDDs and TAC versus placebo; assay type: in vivo, human; settings: for Effect on HDDs and TAC compared to placebo, relative to the total population: all three studies
Description: The efficacy of nalmefene in the reduction of alcohol consumption in patients with alcohol dependence (DSM-IV) has been evaluated in two efficacy studies (Study 12014A and Study 12023A) and one safety study (Study 12013A) as described in the examples. All three studies were randomized, double blind, parallel-group and placebo-controlled.
as §3, with “aged” for “aged ≧18”
At the initial visit (screening visit), the patients' clinical status, social situation, and alcohol consumption pattern were evaluated. After a 1- to 2-week observation period the drinking risk level was re-assessed by calculating mean daily alcohol consumption in g/day over the 1- to 2-week observation period, and treatment with nalmefene was initiated together with counseling with focus on motivating the patients to adhere to the treatment and to change their drinking behavior.
The efficacy of nalmefene was measured using two co-primary endpoints: the change in the monthly number of heavy drinking days (HDDs) and the change in the mean daily total alcohol consumption (TAC) per month (=28 days).
The efficacy of nalmefene on the reduction of alcohol consumption in patients with alcohol dependence (DSM-IV) was evaluated in two efficacy studies (Study 12014A and Study 12023A). […] The efficacy of nalmefene was also evaluated in a randomised, double blind, two parallel group, placebo controlled 1 year safety study (Study 12013A). […]
as §3, with “The timeline followback (TLFB) method was used to obtain estimates of the patient's daily drinking.” left out
At the initial visit, the patients' clinical status, social situation, and alcohol consumption pattern were evaluated (based on patient reporting). […]

[6] = system: patients with alcohol dependence; experiment: Study 12014A: randomised, double blind, placebo controlled 6 month efficacy study, reduction of alcohol consumption; assay type: in vivo, human; settings: nalmefene 18 mg as-needed, MMRM
Method: as §1, §2, §3, §4, §5, §6, §7

alcohol dependence [7] = settings: 20 mg taken when the patient experienced a craving for alcohol; Karhuvaara et al. 2007; cited from earlier work
[8] = High DRL at baseline & randomisation

C=C1CC[C@@]2(O)[C@H]3Cc4ccc(O)c5c4[C@@]2(CCN3CC2CC2)[C@H]1O5 [nalmefene, 17-(cyclopropylmethyl)-4,5-alpha-epoxy-6-methylenemorphinan-3,14-dial]
Superiority over placebo in the management of alcohol dependence (alcohol dependence [1]): no evidence of superiority of nalmefene over placebo
Effect in the management of alcohol dependence (alcohol dependence [2]): good effect
Mean difference to placebo in the change from baseline to month 6, HDD [3, 8]: −2.7 days/month
Mean difference to placebo in the change from baseline to month 6, TAC [3, 8]: -10.3 g/day
Mean difference to placebo in the change from baseline to month 6, HDD ([3]; High DRL at baseline): −2.1 days/month
Mean difference to placebo in the change from baseline to month 6, TAC ([3]; High DRL at baseline): -6.6 g/day
Mean difference to placebo in the change from baseline to month 6, HDD ([3]; Total excl. ERs): −2.0 days/month
Mean difference to placebo in the change from baseline to month 6, TAC ([3]; Total excl. ERs): -7.0 g/day
Mean difference to placebo in the change from baseline to month 6, HDD ([3]; Total population): −1.7 days/month
Mean difference to placebo in the change from baseline to month 6, TAC ([3]; Total population): -5.0 g/day
Mean difference to placebo in the change from baseline to month 6, HDD [4, 8]: −2.6 days/month
Mean difference to placebo in the change from baseline to month 6, TAC [4, 8]: -15.3 g/day
Mean difference to placebo in the change from baseline to month 6, HDD ([4]; High DRL at baseline): −1.1 days/month
Mean difference to placebo in the change from baseline to month 6, TAC ([4]; High DRL at baseline): -5.6 g/day
Mean difference to placebo in the change from baseline to month 6, HDD ([4]; Total excl. ERs): −1.4 days/month
Mean difference to placebo in the change from baseline to month 6, TAC ([4]; Total excl. ERs): -7.9 g/day
Mean difference to placebo in the change from baseline to month 6, HDD ([4]; Total population): −0.9 days/month
Mean difference to placebo in the change from baseline to month 6, TAC ([4]; Total population): -3.5 g/day
Reducing the number of HDDs and TAC versus placebo ([5]; month 6, total study population, two 6 month efficacy studies and 12 month safety study): superior to placebo
Effect on HDDs and TAC compared to placebo, relative to the total population ([5]; patients that were not ERs (total excluding Early Reducers)): more pronounced
Effect on HDDs and TAC compared to placebo, relative to the total population ([5]; patients with a high DRL at baseline): more pronounced
Effect on HDDs and TAC compared to placebo, relative to the total population ([5]; patients with a high DRL both at baseline and at randomisation): more pronounced; also recorded: even further pronounced
Mean difference to placebo in the change from baseline to month 6, HDD [6, 8]: −3.7 days/month
Mean difference to placebo in the change from baseline to month 6, TAC [6, 8]: -18.3 g/day
Mean difference to placebo in the change from baseline to month 6, HDD ([6]; High DRL at baseline): −2.6 days/month
Mean difference to placebo in the change from baseline to month 6, TAC ([6]; High DRL at baseline): -12.2 g/day
Mean difference to placebo in the change from baseline to month 6, HDD ([6]; Total excl. ERs): −3.1 days/month
Mean difference to placebo in the change from baseline to month 6, TAC ([6]; Total excl. ERs): -14.5 g/day
Mean difference to placebo in the change from baseline to month 6, HDD ([6]; Total population): −2.3 days/month
Mean difference to placebo in the change from baseline to month 6, TAC ([6]; Total population): -11.0 g/day
Effect over placebo in the management of alcohol dependence (alcohol dependence [7]): good effect of nalmefene over placebo
